Molecules are shown by their SMILES. Some results are limits rather than exact numbers.

Format in all cases: functional
The test system of assay [1] is Pyricularia oryzae. The assay can be described thus: Fungicidal activity against Magnaporthe oryzae assessed as rice blast disease control at 31.3 ppm foliar application for 24 hr before inoculation at 27 +/- 2 degC measured after 5 days by preventive manner.
Assay [2] deals with Podosphaera fuliginea. The assay is described as follows: Fungicidal activity against Podosphaera fuliginea assessed as cucumber powdery mildew control at 31.3 ppm foliar application 24 hr before inoculation at 23 +/- 2 degC by preventive manner.
The subject of assay [3] is Blumeria graminis f. sp. tritici. The assay can be described thus: Fungicidal activity against Blumeria graminis f. sp. tritici assessed as wheat powdery mildew disease control at 7.8 ppm foliar application 48 24 hr before inoculation by preventive manner.
Assay [4] relates to Thanatephorus cucumeris. The assay is described as follows: Fungicidal activity against Thanatephorus cucumeris assessed as rice sheath blight disease control at 125 ppm foliar application for 24 hr before inoculation at 26 +/- 2 degC measured after 5 days by preventive manner.
Assay [5] concerns Pseudoperonospora cubensis. The assay can be described thus: Fungicidal activity against Pseudoperonospora cubensis assessed as cucumber downy mildew disease control at 7.8 ppm foliar application 24 hr before inoculation onto the abaxial(untreated) surface of leaf by preventive manner.
The test system of assay [6] is Pseudoperonospora cubensis. The assay is described as follows: Fungicidal activity against Pseudoperonospora cubensis assessed as cucumber downy mildew disease control at 7.8 ppm foliar application 24 hr before inoculation onto the adaxial(treated) surface of leaf by preventive manner.
The test system of assay [7] is Botrytis cinerea. The assay can be described thus: Fungicidal activity against Botryotinia fuckeliana assessed as cucumber gray mold disease control at 31.3 ppm foliar application […] at 22 +/- 2 degC by preventive manner.
In assay [8] the test system is Pyricularia oryzae. The assay is described as follows: Fungicidal activity against Magnaporthe oryzae assessed as rice blast disease control at 125 ppm foliar application for 24 hr before inoculation at 27 +/- 2 degC measured after 5 days by preventive manner.
Assay [9] deals with Podosphaera fuliginea. The assay can be described thus: Fungicidal activity against Podosphaera fuliginea assessed as cucumber powdery mildew control at 125 ppm foliar application 24 hr before inoculation at 23 +/- 2 degC by preventive manner.
The test system of assay [10] is Blumeria graminis f. sp. tritici. The assay can be described thus: Fungicidal activity against Blumeria graminis f. sp. tritici assessed as wheat powdery mildew disease control at 125 ppm foliar application for 48 hr before inoculation by preventive manner.
For assay [11], the system named is Pseudoperonospora cubensis. The assay can be described thus: Fungicidal activity against Pseudoperonospora cubensis assessed as cucumber downy mildew disease control at 125 ppm foliar application 24 hr before inoculation onto the abaxial(untreated) surface of leaf by preventive manner.
Assay [12] concerns Pseudoperonospora cubensis. The assay is described as follows: Fungicidal activity against Pseudoperonospora cubensis assessed as cucumber downy mildew disease control at 125 ppm foliar application 24 hr before inoculation onto the adaxial(treated) surface of leaf by preventive manner.
Assay [13] concerns Botrytis cinerea. The assay can be described thus: Fungicidal activity against Botryotinia fuckeliana assessed as cucumber gray mold disease control at 125 ppm foliar application […] at 22 +/- 2 degC by preventive manner.
In assay [14] the test system is Botrytis cinerea. The assay can be described thus: Fungicidal activity against Botryotinia fuckeliana assessed as cucumber gray mold disease control at 7.8 ppm foliar application […] at 22 +/- 2 degC by preventive manner.
For assay [15], the system named is Blumeria graminis f. sp. tritici. The assay can be described thus: Fungicidal activity against Blumeria graminis f. sp. tritici assessed as wheat powdery mildew disease control at 31.3 ppm foliar application for 48 hr before inoculation by preventive manner.
For assay [16], the system named is Podosphaera fuliginea. The assay can be described thus: Fungicidal activity against Podosphaera fuliginea assessed as cucumber powdery mildew control at 2 ppm foliar application 24 hr before inoculation at 23 +/- 2 degC by preventive manner.
For assay [17], the system named is Pseudoperonospora cubensis. The assay can be described thus: Fungicidal activity against Pseudoperonospora cubensis assessed as cucumber downy mildew disease control at 2 ppm foliar application 24 hr before inoculation onto the adaxial(treated) surface of leaf by preventive manner.
Assay [18] has as its system Thanatephorus cucumeris. The assay can be described thus: Fungicidal activity against Thanatephorus cucumeris assessed as rice sheath blight disease control at 31.3 ppm foliar application for 24 hr before inoculation at 26 +/- 2 degC measured after 5 days by preventive manner.
Assay [19] relates to Pseudoperonospora cubensis. The assay can be described thus: Fungicidal activity against Pseudoperonospora cubensis assessed as cucumber downy mildew disease control at 31.3 ppm foliar application 24 hr before inoculation onto the abaxial(untreated) surface of leaf by preventive manner.
Assay [20] deals with Pseudoperonospora cubensis. The assay is described as follows: Fungicidal activity against Pseudoperonospora cubensis assessed as cucumber downy mildew disease control at 31.3 ppm foliar application 24 hr before inoculation onto the adaxial(treated) surface of leaf by preventive manner.

As to `CNC(=O)/C(=N/OC)c1ccccc1COc1cccc(F)c1`, the Activity (in the assay with Pyricularia oryzae [1]; in the assay with Podosphaera fuliginea [2]; in assay [3]; in the assay on Thanatephorus cucumeris [4]; in [5]; in [6]) was 90% throughout. The Activity with Botrytis cinerea [7] turned out to be 90%.
Take `C#CCOc1ccccc1OCc1ccccc1/C(=N\OC)C(=O)NC`: the Activity in the assay on Pyricularia oryzae [8] was 90%; with Podosphaera fuliginea [9] it was 90%; in assay [10], under 90%; in the assay with Thanatephorus cucumeris [4], under 90%; in assay [11], under 90%; in [12], 90%. For the same compound, in the assay with Botrytis cinerea [13], the Activity is recorded as under 90%.
On to `CNC(=O)/C(=N/OC)c1ccccc1COc1ccccc1-c1ccccc1`, for which the Activity was 90% in the assay on Pyricularia oryzae [8]; 90% in the assay with Podosphaera fuliginea [9]; under 90% in assay [10]; under 90% with Thanatephorus cucumeris [4]; under 90% in assay [11]; 90% in [12]. Moreover, in the assay on Botrytis cinerea [13], the Activity is under 90%.
For the compound `CNC(=O)/C(=N/OC)c1ccccc1COc1ccc(F)c(F)c1`, the Activity in the assay with Pyricularia oryzae [1] is 90%; with Podosphaera fuliginea [2] it was 90%; with Botrytis cinerea [14], 90%; in assay [15], 90%; in the assay on Thanatephorus cucumeris [4] it was under 90%; in assay [11], under 90%. Besides, in assay [12], the Activity is reported as under 90%.
Consider `CNC(=O)/C(=N/OC)c1ccccc1COc1cccc(Cl)c1Cl`, for which the Activity is on record as 90% with Pyricularia oryzae [1]; 90% with Podosphaera fuliginea [16]; 90% in assay [15]; under 90% in the assay on Thanatephorus cucumeris [4]; under 90% in [11]; 90% in [17]. Moreover, in the assay with Botrytis cinerea [7], the Activity worked out at 90%.
In the case of `CNC(=O)/C(=N/OC)c1ccccc1COc1c(Cl)cccc1Cl`, the Activity was 90% in the assay with Pyricularia oryzae [8]; under 90% in the assay on Podosphaera fuliginea [9]; 90% in assay [15]; under 90% with Thanatephorus cucumeris [4]; under 90% in assay [11]; under 90% in assay [12]. In the assay on Botrytis cinerea [13], the Activity turned out to be 90%.
Regarding `CNC(=O)/C(=N/OC)c1ccccc1COc1c(C)cccc1C`, the Activity in the assay with Pyricularia oryzae [8] is 90%; with Podosphaera fuliginea [9] it was 90%; in assay [10], 90%; in the assay with Thanatephorus cucumeris [4], under 90%; in assay [11], under 90%; in assay [12] it was under 90%. The Activity in the assay on Botrytis cinerea [13] was determined as 90%.
As to `CNC(=O)/C(=N/OC)c1ccccc1COc1cc(Cl)cc(Cl)c1Cl`, the Activity was under 90% with Pyricularia oryzae [8]; 90% in the assay on Podosphaera fuliginea [16]; 90% in the assay with Botrytis cinerea [14]; 90% in assay [15]; under 90% in the assay on Thanatephorus cucumeris [4]; under 90% in [11]. In assay [17], the Activity was determined as 90%.
Consider `CNC(=O)/C(=N/OC)c1ccccc1COc1cc(Cl)c(Cl)cc1Cl`, for which the Activity (in the assay on Pyricularia oryzae [1]; with Podosphaera fuliginea [16]; in the assay with Botrytis cinerea [14]; in assay [15]; in the assay with Thanatephorus cucumeris [18]; in [19]) was 90% each time. Moreover, the Activity in assay [17] is on record as 90%.
With `CNC(=O)/C(=N/OC)c1ccccc1COc1c(Cl)ccc(Cl)c1Cl`, the Activity in the assay with Pyricularia oryzae [8] is reported as 90%; in the assay on Podosphaera fuliginea [9], 90%; in assay [10], 90%; with Thanatephorus cucumeris [4], under 90%; in [11], under 90%; in assay [20], 90%. Also, the Activity in the assay with Botrytis cinerea [13] is recorded as 90%.
Take `CNC(=O)/C(=N/OC)c1ccccc1COc1c(C)ccc(C)c1C`: the Activity in the assay on Pyricularia oryzae [8] was 90%; with Podosphaera fuliginea [9], under 90%; in [10] it was under 90%; in the assay on Thanatephorus cucumeris [4], under 90%; in assay [11] it was 90%; in [12], under 90%. Further, in the assay with Botrytis cinerea [13], the Activity is reported as under 90%.

The values above are taken from ChEMBL document CHEMBL3046469, “Fungicidal Activities of 2-(Substituted Phenoxymethyl)phenyl-2-methoxyiminoacaetamide Derivatives” (1998).
